Source: patent US20230332230A1, “BIOMARKERS AND USES THEREOF IN THE TREATMENT OF CHRONIC HEPATITIS B INFECTION” (Janssen Sciences Ireland Unlimited Company, priority 2020, published 2023)

Key:
Type in all cases: in vivo, human
[1] = test system: chronic hepatitis B (CHB) patients; assay: Time to clinical relapse after discontinuation of NUC treatment (Cox proportional hazard regression)
Text: (§1) Patients and Study Design: In this multi-center prospective study in Taiwan, 242 CHB patients were enrolled while in their last half year of a minimum 3-year treatment regimen with direct antivirals. Of them, 47 were excluded due to protocol violation, screening failure, lost to follow-up, withdrawal by the subject, use of immune related therapy, or on-treatment clinical relapse. An additional 14 were excluded as the analysis required patients to be hepatitis B e-antigen (HBeAg) negative, hepatitis virus (HBV) DNA < 60 IU/mL, and alanine transaminase (ALT) < 80 U/L at the last on-treatment visit, leaving 186 patients eligible for analysis.
(§2) Patients were followed for up to two years after treatment discontinuation while assessing virological and clinical relapse, provided that treatment was not re-initiated. Virological relapse was defined as HBV DNA ≥ 2000 IU/mL. Clinical relapse was defined as ALT level ≥ 2x ULN in addition to a virological relapse. A patient was denoted a sustained clinical responder in case no clinical and no virological relapse occurred during the entire follow-up period after treatment cessation.
(§3) Statistical Analysis: Continuous variables are presented as means ± standard deviations, categorical variables by counts and percentages. The Student t test and Fisher exact test were used to compare continuous and categorical covariates, respectively, between groups. Cumulative incidence of virological and clinical relapse after stop of treatment was assessed by Kaplan-Meier curves including the log-rank test. Cox proportional hazard regression analysis was applied for univariate and multivariate models of time to virological and clinical relapse. To assess associations to sustained clinical response, logistic regression analysis was performed. All statistical analyses were executed within the R(3.4.3) statistical software. Statistical tests were two-sided and considered significant at the 0.05 significance level.
(§4) Statistical Analysis of Genetics Data: All the statistical analyses were performed in R (3.4.3). The association between the SNPs and the time to clinical relapse and time to viral relapse was assessed using a Cox proportional hazard model, considering the prior treatment. • Surv(TIME_VIRAL_RELAPSE,STATUS_VIRAL_RELAPSE) ~ GENETIC + LAST_TREATMENT • Surv(TIME_CLINICAL _RELAPSE,STATUS_CLINICAL_RELAPSE) ~ GENETIC + LAST_TREATMENT
(§5) Merge With Genetic Data: For both clinical and virological relapse, the significant clinical covariates (Table 4 and Table 5) are merged with the corresponding significant hits from the GWAS analysis. Cox proportional regression analysis with lasso regularization is applied to assess the combined association of the clinical and genetic covariates to relapse. Note that a threshold was set to the absolute values of the coefficients to be included in the final Cox model, equal to 0.35 and 0.2 for clinical and virological relapse respectively.
(§6) Cumulative incidence of virological and clinical relapse after stop of treatment was assessed by Kaplan-Meier curves. In addition, Cox proportional hazard regression analysis (Therneau Terry M., et al., Statistics in Medicine. 2001, 20(13):2053-2054) was applied, obtaining univariate and multivariate models for time to virological and clinical relapse (model fits are provided in Table 23a and Table 23b for virological and clinical relapse respectively).
(§7) Statistical Analysis of Genetics Data: Considering that HBsAg status at the end of treatment and treatment regimen were predictive for onset of relapse, the association between the SNPs and onset of relapse was assessed using a Cox model^1 including HBsAg level at the last visit on treatment (high (≥ 100 IU/mL) vs. low (< 100 IU/mL)) and the antiviral treatment at enrollment (tenofovir vs. entecavir) as main effects. […]

[2] = test system: chronic hepatitis B (CHB) patients; assay: Time to virological relapse after discontinuation of NUC treatment (Cox proportional hazard regression); conditions: for HR: hazard ratio for virological relapse after stop of treatment, treatment regimen tenofovir vs entecavir
Text: as §1, §2, §3, §4, §5, §6, §7

[3] = test system: chronic hepatitis B (CHB) patients; assay: Sustained clinical response after discontinuation of NUC treatment (logistic regression)
Text: Patients and Study Design: In this multi-center prospective study in Taiwan, 242 CHB patients were enrolled while in their last half year of a minimum 3-year treatment regimen with direct antivirals. Of them, 47 were excluded due to protocol violation, screening failure, lost to follow-up, withdrawal by the subject, use of immune related therapy, or on-treatment clinical relapse. An additional 14 were excluded as the analysis required patients to be hepatitis B e-antigen (HBeAg) negative, hepatitis virus (HBV) DNA < 60 IU/mL, and alanine transaminase (ALT) < 80 U/L at the last on-treatment visit, leaving 186 patients eligible for analysis. Patients were followed for up to two years after treatment discontinuation while assessing virological and clinical relapse, provided that treatment was not re-initiated. Virological relapse was defined as HBV DNA ≥ 2000 IU/mL. Clinical relapse was defined as ALT level ≥ 2x ULN in addition to a virological relapse. […] Cumulative incidence of virological and clinical relapse after stop of treatment was assessed by Kaplan-Meier curves including the log-rank test. […] Considering that HBsAg status was representative of disease progression, the association between the SNPs and sustained clinical response was assessed using a logistic model, considering HBsAg levels (high (≥ 100 IU/mL) vs. low (< 100 IU/mL)) at the last visit before end of antiviral treatment. […]

[4] = test system: chronic hepatitis B (CHB) patients; assay: Logistic regression model predicting clinical relapse before 6 months after stop of treatment; conditions: Table 12; model with treatment regimen, EOT HBsAg and all SNPs predicting CR
Description: Prediction of Clinical Relapse: The receiver operating characteristic (ROC) curve was analyzed for treatment regimen, EOT HBsAg (≥ 100 IU/mL vs < 100 IU/mL), rs4668818, rs948006, rs2934456, rs77586835, rs75876539, rs8050261, rs1542951, rs231770, rs9277535, or a combination of these covariates, in predicting clinical relapse (CR) after stop of treatment.

[5] = test system: chronic hepatitis B (CHB) patients; assay: Logistic regression model predicting viral relapse before 3 months after stop of treatment; conditions: Table 13; model with treatment regimen, EOT HBsAg, baseline HBeAg status and all SNPs predicting VR
Description: Prediction of Virological Relapse: The receiver operating characteristic (ROC) curve was analyzed for treatment regimen, EOT HBsAg (≥ 100 IU/mL vs < 100 IU/mL), baseline HBeAg status, all 30 SNPs associated to virological relapse (VR), or a combination of these covariates, in predicting virological relapse (VR) after stop of treatment are represented on FIG. 22 (3 months), FIG. 23 (6 months), FIG. 24 (1 year) and FIG. 25 (2 years).

[6] = later after stopping entecavir treatment compared to tenofovir treatment, Example 1

Q: What does the source list for `C=C1[C@H](CO)[C@@H](O)C[C@@H]1n1cnc2c(=O)[nH]c(N)nc21` [Entecavir, entecavir]?
A: Onset of clinical relapse, average delay ([1]; among the 110 clinical relapsers, later after stopping entecavir compared to tenofovir, Example 3): 100 days; Onset of clinical relapse, average delay [1, 6]: 115 days; Onset of virological relapse, average delay [2, 6]: 119 days

Q: `C[C@H](Cn1cnc2c(N)ncnc21)OCP(=O)(O)O` [Tenofovir, tenofovir] was tested. Which “Clinical relapse, multivariate analysis HR (95% CI)” value ([1]; Table 4, Example 1, Cox regression, treatment regimen vs entecavir, after stop of treatment) did it give?
A: Its value is 1.78 (1.20-2.64).

Q: And the “Clinical relapse, multivariate analysis HR (95% CI)” value ([1]; Table 4, Example 1, Cox regression, treatment regimen vs entecavir, after stop of treatment, listed as tenofovir)?
A: The value was 1.74.

Q: And the “Clinical relapse, univariate analysis HR (95% CI)” value ([1]; Table 4, Cox regression, treatment regimen vs entecavir, after stop of treatment, N = 186)?
A: The value was 1.77 (1.19-2.62).

Q: And the “Time to clinical relapse, lasso regression, mean estimated hazard ratio” value ([1]; Table 10, clinical and genetic covariates, mean across 1000 iterations, vs entecavir)?
A: Its value is 1.492.

Q: What about the “Clinical relapse, multivariate analysis HR (95% CI)” value ([1]; Table 23b, Example 3, multivariate with age, EOT HBsAg, vs entecavir) of the same compound?
A: Its value is 1.87 (1.26-2.78).

Q: What about the “Clinical relapse, multivariate analysis HR (95% CI)” value ([1]; Table 23b, Example 3, multivariate with age, EOT HBsAg, vs entecavir, listed as tenofovir) of the same compound?
A: The value was 1.80.

Q: What about the “Clinical relapse, univariate analysis HR (95% CI)” value ([1]; Table 23b, Example 3, vs entecavir) of the same compound?
A: Its value is 1.77 (1.19-2.62).

Q: What about the “Clinical relapse HR, Cox model including the Clinical SNP signature” value ([1]; Table 26b, HBsAg and treatment regimen as main effects plus six SNPs, vs entecavir) of the same compound?
A: The value was 1.89.

Q: And the HR ([1]; hazard ratio for clinical relapse after stop of treatment, treatment regimen tenofovir vs entecavir, multivariate Cox model with HBsAg at end of treatment and all nine SNPs)?
A: Its HR is 1.75.

Q: And the “Virological relapse, multivariate analysis HR (95% CI)” value ([2]; Table 5, Example 1, Cox regression, treatment regimen vs entecavir, after stop of treatment)?
A: Its value is 3.02.

Q: What about the “Virological relapse, univariate analysis HR (95% CI)” value ([2]; Table 5, Cox regression, treatment regimen vs entecavir, after stop of treatment, N = 186) of the same compound?
A: The value was 2.49 (1.77-3.49).

Q: And the “Time to virological relapse, lasso regression, mean estimated hazard ratio” value ([2]; Table 11, clinical and genetic covariates, mean across 1000 iterations, vs entecavir)?
A: Its value is 2.662.

Q: And the “Virological relapse, multivariate analysis HR (95% CI)” value ([2]; Table 23a, Example 3, multivariate with age, baseline HBeAg, EOT HBsAg, vs entecavir)?
A: The value was 2.97 (2.10-4.20).

Q: What about the “Virological relapse, multivariate analysis HR (95% CI)” value ([2]; Table 23a, Example 3, multivariate with age, baseline HBeAg, EOT HBsAg, vs entecavir, listed as tenofovir) of the same compound?
A: Its value is 2.97.

Q: What about the “Virological relapse, univariate analysis HR (95% CI)” value ([2]; Table 23a, Example 3, vs entecavir) of the same compound?
A: Its value is 2.49 (1.77-3.49).

Q: And the HR ([2]; multivariate Cox model with HBsAg at end of treatment and all 33 SNPs (Table 27a))?
A: The HR was 7.26.

Q: And the HR ([2]; multivariate Cox model with HBsAg at end of treatment and the 17 Virological signature SNPs (Table 27b))?
A: The HR was 7.06.

Q: What about the “Sustained clinical response, univariate analysis OR (95% CI)” value ([3]; Table 6, treatment regimen vs entecavir) of the same compound?
A: Its value is 0.79 (0.29-2.03).

Q: What about the “Sustained clinical response, univariate analysis OR (95% CI)” value ([3]; Table 15, Example 2, vs entecavir) of the same compound?
A: Its value is 0.79 (0.29-2.03).

Q: What about the “Clinical relapse before 6 months, odds ratio (Estimate)” value [4] of the same compound?
A: Its value is 4.008.

Q: What about the “Viral relapse before 3 months, odds ratio (Estimate)” value [5] of the same compound?
A: Its value is 3010.
